Reference: patent publication US12465630B2, “Small peptide compositions and uses thereof” (University of Pittsburgh—Of the Commonwealth System of …, priority 2018, dated 2025)
“Also recorded” adds a separate entry of the source. Ends that are not written are not given here.

Key:
[1] = tested on: cardiac fibroblasts (CF) and cardiomyocytes (CM); assay: In vitro cellular function assays on CM and CF (P38 signaling, motility, ECM); format: cell-based, mouse
Source text: (§1) CM and CF were isolated from wild type and CXCR3-null FVB neonatal mice. Following isolation, CM, CF, or CM/CF in both direct and indirect co-cultures were challenged with CM and CF activating growth factor transforming growth factor […]. Antagonist peptide treatments, CRF-5-3 and CRF-5-5, were given alone or in combination with CXCL10. To determine whether CRF-5-3 and CRF-5-5 block CXCL10 binding to its receptor, the ability of biotin-tagged CXCL10 and/or FITC-tagged CRF-5-5 to compete for binding to CM and CF was analyzed using flow cytometry. In vitro cellular function assays were assessed for migration, apoptosis, and extracellular matrix (ECM) secretion. Real time quantitative polymerase chain reaction was employed in order to determine modified relative gene expression of both CM and FB, following treatment.

cardiac fibroblasts [2] = assay: P38 MAPK-dependent extracellular matrix production in cardiac fibroblasts; format: cell-based, mouse
Source text: as §1

cardiomyocytes (CM) = assay: Real time quantitative PCR relative gene expression, cardiomyocytes; format: cell-based, mouse; settings: peptide with CXCL10
Source text: as §1

CM/CF co-cultures = assay: Histochemical and fluorescence analyses of ECM in CM/CF co-cultures; format: cell-based, mouse
Source text: as §1

cardiac fibroblasts (CF) = assay: Real time quantitative PCR relative gene expression, cardiac fibroblasts; format: cell-based, mouse; settings: peptide with CXCL10
Source text: as §1

primary lung fibroblasts [3] = assay: Scratch assay, TGF-β-induced fibroblast migration; format: cell-based, human; settings: TGF-β 10 ng/mL, 24 hours
Experimental: Next, studies were performed to evaluate the effect of IP-10 related peptides on migration of lung fibroblasts in response to TGF-β. Primary lung fibroblasts from healthy patients were plated in 24-well plates in complete medium and incubated overnight. The next day, the medium was changed to quiescent medium and cells were incubated in this medium for 24 hours. The following day, a plus-shaped scratch was made across the cells using a 1000 μL pipette tip. An image was taken at a location that could be identified later. After imaging, cells were either left untreated, treated with 100 ng/mL peptide alone, treated with 10 ng/mL TGF-β, or treated with peptide and TGF-β and incubated for 24 hours. At the end of the incubation time, the cells were imaged in the same location as in the original image to visualize closure of the scratch. The denuded area was calculated using ImageJ software and the percent wound closure was calculated for each treatment group.

cardiac fibroblasts [4] = assay: Fibroblast activation assay (αSMA), cardiac fibroblasts; format: cell-based, mouse; settings: TGFβ1 10 ng/mL vs untreated control
Experimental: (§2) Primary cardiac fibroblasts and cardiomyocytes were isolated from both wild-type and CXCR3−/− neonatal mouse pups. After washing in PBS, hearts were stirred for 5 minutes in 0.5% trypsin at 37° C. to dissociate cells into solution. The suspended cells were then transferred to DMEM containing 20% fetal bovine serum (FBS) on ice to inactivate trypsin activity, and dissociation was repeated twice more with fresh trypsin solution. Cells were then washed and plated into 6-well plates at 1.25×10^6 cells/well, suspended in cardiac cell media (DMEM containing 7.5% dialyzed FBS and 1% antibiotic/antimitotic solution). After three hours, adhered fibroblasts were separated from the unattached cardiomyocytes through resuspension of the cells, and cardiomyocytes were plated separately at a density of 5×10^5 cells/ml.
Fibroblast activation to myofibroblasts is marked by αSMA expression within the cytoskeleton and serves as a marker to induce fibrosis. Cardiac fibroblasts were plated at 2,000 cells/well in an 8-well chamber slide and allowed to adhere overnight. After 24 hours, cells were washed and treated with: TGFβ1 alone (10 ng/ml), CXCL10 alone (10 μM), IP-10p alone (10 μM), TGFβ1+CXCL10, TGFβ1+IP-10p, or left untreated. After 24 hours, cells were fixed in ice cold methanol for 10 minutes and stained for αSMA (1:200, Abcam ab5694, Cambridge, UK) at 4° C. overnight, followed by a goat-anti-rabbit Alexa Fluor 594-conjugated secondary antibody (Abcam ab150080). After counterstaining with DAPI, cells were imaged, and fibroblast activation was measured using corrected total cell fluorescence (CTCF). These measurements were also performed in co-cultures of cardiomyocytes and cardiac fibroblasts (2:1 ratio)

cardiac fibroblasts [5] = assay: Motility (scratch) assay, cardiac fibroblasts; format: cell-based, mouse
Experimental: as §2
(§3) To determine the effect of IP-10p on TGFβ1-induced cell migration, motility assays were performed on cardiac fibroblasts, cardiomyocytes, and co-cultures (2:1 ratio of cardiomyocytes to fibroblasts). Cells were plated at 2.5×10^5 cells/well in a 12-well uncoated plate in depleted media (DMEM containing 0.5% FBS) 24 hours before beginning the experiment. A pipette tip was used to create a scratch in the monolayer and the plate was washed twice with PBS to remove scraped cells. Cells were then treated with TGFβ1 (R&D Systems, Minneapolis, MN) alone (10 ng/mL) to stimulate fibrosis, CXCL10 alone (10 μM), IP-10p alone (10 μM), TGFβ1+CXCL10, TGFβ1+IP-10p, or left untreated. Images were taken immediately after scratching and 24 hours later, and Adobe Photoshop was used to quantify wound motility as distance between wound edges relative to the initial scratch width.

[6] = tested on: co-cultures of cardiomyocytes and cardiac fibroblasts; assay: Fibrotic extracellular matrix (ECM) secretion, co-cultures; format: cell-based, mouse; settings: agent alone vs unstimulated cultures, 48 h
Experimental: as §2
Cardiac fibrosis is marked by overproduction of ECM proteins following injury. To observe the effect of IP-10p on secretion of these molecules, co-cultures of cardiomyocytes and cardiac fibroblasts were used to account for […] signaling taking place between the two dominant cell types in the heart. Fibroblasts and myocytes were plated at a 2:1 ratio using the same culture conditions and treatment groups described above for fibroblast activation. Following a 48-hour incubation with their respective treatments, cells were fixed, permeabilized and stained. Antibodies for collagen α1 type 1 (1:250, Santa Cruz Biotechnology SC8784, Dallas, TX), fibronectin (1:250, Abcam ab2413), and tenascin C (1:200, Abcam ab6346), followed by their appropriate secondary antibodies (Abcam ab150132, ab150077, and 150153, respectively), were used to determine fibrotic ECM secretion from the co-cultures. Expression of these molecules is expressed at CTCF and was quantified using MetaMorph® (Molecular Devices, Sunnyvale, CA).

primary lung fibroblasts [7] = assay: qPCR of pro-fibrotic mRNAs in primary lung fibroblasts; format: cell-based, human; settings: TGF-β 10 ng/mL, 24 h
Experimental: The next day, the medium was changed to quiescent medium and the cells were incubated in this medium for 24 hours. The following day, cells were either left untreated, treated with 10 ng/mL or 100 ng/mL of IP-10-1 (SEQ ID NO: 2), IP-10-2 (SEQ ID NO: 3) or IP-10-3 (SEQ ID NO: 4) peptide, treated with 10 ng/mL TGF-β, or treated with peptide and TGF-β for 24 hours. Total RNA was extracted using the Qiagen miRNeasy kit (Qiagen) and treated with DNase1, according to the manufacturer's instructions. RNA was then quantified and converted to cDNA using the Clontech RNA to cDNA EcoDry Double Primed Premix (Takara). qPCR was performed using PowerUp Sybr Green (Invitrogen) on an Applied Biosystems Quant Studio 3 instrument. Primers were from IDT and were designed using IDT Primer Quest and NCBI Primer Blast tools. The delta-delta Ct method was used to determine relative expression. GAPDH was used as a housekeeping gene.

cardiomyocytes = assay: Motility (scratch) assay, cardiomyocytes; format: cell-based, mouse; settings: TGFβ1 10 ng/mL + agent 10 μM, 24 h; FIG. 1A
Experimental: as §2, §3

primary lung fibroblasts [8] = settings: for number of viable cells (Calcein-AM uptake): 1 to 1000 ng/mL, 24 hours
Experimental: The effect of IP-10-related peptides on viability of lung fibroblasts was evaluated. Primary lung fibroblasts from healthy patients (SC31 and SC45) were either left untreated or treated with various concentrations of peptides (1 to 1000 ng/mL) for 24 hours. Treatment for 30 minutes with 70% ethanol in water was used as a positive control for dead cells. The Molecular Probes LIVE/DEAD Viability/Cytotoxicity Kit for mammalian cells (Invitrogen) was used to stain live cells. Following the manufacturer's protocol, at the end of treatment, cells in 96-well plates were washed with PBS, and then incubated in 2 μM Calcein-AM solution for 45 minutes at room temperature. Following incubation, the cells were imaged under a fluorescence microscope using the GFP channel. For quantification, ImageJ was used to count the number of live cells per field.

## FRFLFRGGRFLFRF [CRF-5-3]
[1]
  CXCL10-suppressed growth factor-induced ECM production: promote the disinhibition
  CXCL10-suppressed growth factor-induced intracellular P38 signaling: promote the disinhibition
  CXCL10-suppressed growth factor-induced motility: promote the disinhibition
Cardiac fibroblasts [2]
  CXCL10 inhibition of TGF-β-induced P38 MAPK-dependent extracellular matrix production: altered
Cardiomyocytes (CM)
  CXCL10-induced gene expression on CM: altered
CM/CF co-cultures
  ECM alterations following TGF-β and/or CXCL10 treatment: CRF-5-3-mediated alterations
Cardiac fibroblasts (CF)
  CXCL10-induced gene expression on FB: altered

## transforming growth factor beta 1 [TGFβ1]
Primary lung fibroblasts [3]
  fibroblast migration (wound closure), TGF-β alone: significantly increased fibroblast migration; also recorded: significantly increased rate of wound closure
Cardiac fibroblasts [4]
  αSMA expression, TGFβ1 alone: drastically increased αSMA expression
Cardiac fibroblasts [5]; TGFβ1 10 ng/mL alone, 24 h
  increase of cardiac fibroblast motility relative to untreated cells: over 3 fold
[6]
  collagen secretion, agent alone: significant upregulation
  fibronectin secretion, agent alone: significant upregulation
Primary lung fibroblasts [7]
  expression of pro-fibrotic mRNAs, TGF-β alone: induced expression; also recorded: caused an induction

## C-X-C chemokine ligand 10 [CXCL10]
cardiomyocytes
  cardiomyocyte motility in the presence of TGFβ1: completely inhibited; also recorded: inhibit migration
Cardiac fibroblasts [5]; 10 μM alone, 24 h, compared to control
  motility of cardiac fibroblasts, agent alone: not altered
Cardiac fibroblasts [5]; FIG. 1B
  migration following TGF-β induction in cardiac fibroblasts: inhibit migration
Cardiac fibroblasts [5]; TGFβ1 10 ng/mL + agent 10 μM, 24 h
  reduction of motility of TGFβ1-treated fibroblasts: 30%

## FRWLWRGGRWLWRF [CRF-5-5]
[1]
  CXCL10-suppressed growth factor-induced ECM production: promote the disinhibition
  CXCL10-suppressed growth factor-induced intracellular P38 signaling: promote the disinhibition
  CXCL10-suppressed growth factor-induced motility: promote the disinhibition
  CXCL10 inhibition of TGF-β-induced matrix production: interfered
Cardiac fibroblasts [2]
  CXCL10 inhibition of TGF-β-induced P38 MAPK-dependent extracellular matrix production: altered
Cardiomyocytes (CM)
  CXCL10-induced gene expression on CM: altered
Cardiac fibroblasts (CF)
  CXCL10-induced gene expression on FB: altered

## FAKAIKNFAKAVAKFA [IP-10-3, FAKAIKNFAKAVAKFA]
Primary lung fibroblasts [8]
  number of viable cells (Calcein-AM uptake): no impact

## PESRVIKNLLRVVSKEKSRRSP [IP-10-2]
Primary lung fibroblasts [8]
  number of viable cells (Calcein-AM uptake): no impact

## PESKVIKNLLKVASKERSKRSP [IP-10-1]
Primary lung fibroblasts [8]
  number of viable cells (Calcein-AM uptake): no impact

## CCO [ethanol, reference compound]
Primary lung fibroblasts [8]; 70% ethanol in water, 30 minutes
  Calcein-AM positive cells, positive control for dead cells: elimination of the detected Calcein-AM positive cells
